# Measured values as given in patent US20140186376A1, “Compositions and Methods for Inhibiting CCL3” (University of Rochester, priority 2012, published 2014).
# Test system: osteoclasts
# Assay: Zoledronic acid treatment of normal mice: serum bone markers (ELISA) and micro-CT bone volumes
# Format: in vivo
# Conditions: normal ZA-treated mice; 0.25 mg/kg i.p. bi-weekly; vehicle 142±28; p=0.0296
# Method: The right hindlimb of each mouse was fixed in 10% Formalin for 48 hours, and then stored in 70% ethanol at 4° C. MicroCT analysis was performed as previously described (2009, Frisch et al., Blood 114:4054-4063).
# All ELISAs were performed as indicated by the manufacturer's instructions. CTX measurements were performed using the RatLaps ELISA (AC-06F1, Immunodiagnostic Systems Inc.). TRACP 5b measurement was performed using Mouse TRAP ELISA (SB-TR103, Immunodiagnostic Systems Inc.). Osteocalcin measurement performed using the Mouse Osteocalcin EIA kit (BT-470, Biomedical Technologies). Bovine CTX from bone wafer culture media was measured using the Crosslaps® for Culture ELISA (AC-07F1, Immunodiagnostic Systems Inc.). Murine CCL3 protein measurement was performed using the Mouse CCL3/MIP-1 alpha Quantikine ELISA Kit (MMA00, R&D systems). Human CCL3 protein measurement was performed using the Human CCL3/MIP-1 alpha Quantikine ELISA Kit (DMA00, R&D systems).
# Mice were given a 0.25 mg/kg intraperitoneal injection of zoledronic acid (ZA) bi-weekly for 2 weeks prior to induction of disease and throughout the course of the disease.
smiles,measurement,value
"O=P(O)(O)C(O)(Cn1ccnc1)P(=O)(O)O [ZA, Zoledronic acid]",serum levels of osteocalcin,49 ± 1 ng/mL
